Experimental data from patent publication US7655629B2, “Peptides and their use for the treatment of HIV infections” (priority 2002, dated 2010).
Where two headings read alike, the source gives them in different places. Positions of bridges follow the written chain, without caps; N, C: chain ends. Non-standard residues stand in square brackets, D forms with d. Residues, ends and D or L forms follow the SMILES beside them. Chains are numbered I, II in the order given. Tic = O=C(O)[C@@H]1Cc2ccccc2CN1; NMeL = CN[C@@H](CC(C)C)C(=O)O; AEEA = NCCOCCOCC(=O)O

How the values were obtained:
[1] = rat, plasma
Procedure: (§2) Plasma was spiked resulting in concentrations of 40 μg/ml and stored at 37° C. At time points 0, 15, 30, 45, 60, 120, 180, 240 and 300 min samples of 20 μl were taken. The plasma was immediately mixed for precipitation with the two-fold volume of acetonitrile containing 0.15% (w/v) n-nonyl-β-D-glucopyranoside. Following centrifugation the supernatants were mixed with the two-fold volume of 0.1% (v/v) trifluroacetic acid. Twenty μl of these solutions were analyzed by LC-MS. Chromatography was performed using a gradient with the following eluents: eluent A: water containing 0.06% trifluroacetic acid (v/v), eluent B: acetonitrile/water 80:20 (v/v; with 0.05% trifluoroacetic acid; v/v). A C18 precolumn was used in combination with a C18 separation column (300 Å, 5 μm, 150×1 mm inner diameter) at a flow rate of 30 μl/min. HPLC eluates were ionized by the electrospray technique of a LCQ classic mass spectrometer. Areas of the detected peaks of the peptides of the present invention were measured and used for quantification by external calibration. The calibration curve was linear over a range from 0.5 μg/ml to 250 μg/ml plasma. Half life—defined as the period for a concentration decrease to 50% of the initial concentration—was calculated from the slope of an extrapolated curve plotting the relative peptide concentration at a given time point (logarithm scale) against the incubation time. These experiments allowed the quantitative analysis of peptide concentration in plasma.

[2] = cynomolgus monkey, plasma
Procedure: as §2

[3] = dog, plasma
Procedure: as §2

X4-tropic HIV-1 NL4-3 = conditions: read-out: IC50 NL4-3; P4-CCR5 cells, HIV-1 NL4-3, peptide 2 h before infection, readout three days after infection
Outline: (§1)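 P4-CCR5 cells (CD4, CCR5, CXCR4, HIV-1 promoter-driven β-galactosidase) pretreated 2 h with peptide, then infected with virus containing 1 ng p24 antigen and incubated overnight. Cells washed and cultured without peptide; three days post-infection infectivity read by chemiluminescent β-galactosidase assay, in quintuplicate.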

HIV-1 NL4-3 DTV = conditions: read-out: IC50 DTV, P4-CCR5 cells, peptide 2 h before infection, readout three days after infection
Outline: as §1

[4] = human, plasma
Procedure: as §2

Row | Structure (SMILES) | half-life [1] [h] | half-life [2] [h] | half-life [3] [h] | IC50 (X4-tropic HIV-1 NL4-3) [nM] | IC50 (HIV-1 NL4-3 DTV) [nM] | half-life [4] [h]
1 | CC[C@H](C)[C@H](NC(=O)[C@H](C)NC(=O)[C@H](CCC(=O)O)NC(=O)[C@@H](N)CC(C)C)C(=O)N1CCC[C@H]1C(=O)N[C@@H](CCSC)C(=O)N[C@H]1CSSC[C@@H](C(=O)N[C@@H](Cc2ccccc2)C(=O)N[C@@H](Cc2ccccc2)C(=O)N[C@@H](CC(N)=O)C(=O)N[C@@H](CCCCN)C(=O)N2CCC[C@H]2C(=O)N[C@@H](Cc2ccccc2)C(=O)N[C@H](C(=O)N[C@@H](Cc2ccccc2)C(=O)O)C(C)C)NC(=O)[C@H](CCC(=O)O)NC(=O)[C@@H]2CCCN2C(=O)[C@@H]2CCCN2C(=O)[C@H]([C@@H](C)CC)NC1=O [VIR-273] (H-LEAIPMCIPPECFFNKPFVF-OH; disulfide 7-12) | 0.1 | 3.6 | 12.4 | 332 | 1100 | 4.2
2 | CC[C@H](C)[C@H](NC(=O)[C@H](C)NC(=O)[C@H](CCC(=O)O)NC(=O)[C@@H](N)CC(C)C)C(=O)N1CCC[C@H]1C(=O)N[C@@H](CCSC)C(=O)N[C@@H](CO)C(=O)N[C@H](C(=O)N1CCC[C@H]1C(=O)N1CCC[C@H]1C(=O)N[C@@H](CCC(=O)O)C(=O)N[C@@H](Cc1ccccc1)C(=O)N[C@@H](CC(C)C)C(=O)N[C@@H](Cc1ccccc1)C(=O)NCC(=O)N[C@@H](CCCCN)C(=O)N1CCC[C@H]1C(=O)N[C@@H](Cc1ccccc1)C(=O)N[C@H](C(=O)N[C@@H](Cc1ccccc1)C(=O)NCCOCCOCC(=O)NCCOCCOCC(N)=O)C(C)C)[C@@H](C)CC [VIR-580] (H-LEAIPMSIPPEFLFGKPFVF[AEEA][AEEA]-NH2) | 1.4 | 10.2 | 42 | 150 | 497 | 38.9
3 | CC[C@H](C)[C@H](NC(=O)[C@H](CC(=O)O)NC(=O)[C@H](CCC(=O)O)NC(=O)[C@@H](N)CC(C)C)C(=O)N1CCC[C@H]1C(=O)N[C@H]1CSSC[C@@H](C(=O)N[C@H](C(=O)N[C@@H](C)C(=O)N[C@@H](Cc2ccccc2)C(=O)N[C@@H](CC(N)=O)C(=O)N[C@@H](CCCCN)C(=O)N2CCC[C@H]2C(=O)N[C@@H](Cc2ccccc2)C(=O)N[C@H](C(=O)N[C@@H](Cc2ccccc2)C(=O)O)C(C)C)C(C)C)NC(=O)[C@H]2CCCN2C(=O)[C@@H]2CCCN2C(=O)[C@H]([C@@H](C)CC)NC(=O)[C@H](CO)NC1=O [VIR-357, LEDIPCSIPpCVAFNKPFVF] (H-LEDIPCSIP[dP]CVAFNKPFVF-OH; disulfide 6-11) | 0.6 | 13.2 | 71.5 | 497 | 704 | 23.3
4 | CC[C@H](C)[C@H](NC(=O)[C@H](C)NC(=O)[C@H](CCC(=O)O)NC(=O)[C@@H](N)CC(C)C)C(=O)N1CCC[C@H]1C(=O)N[C@H]1CSSC[C@@H](C(=O)N[C@H](C(=O)NCC(=O)N[C@@H](Cc2ccccc2)C(=O)NCC(=O)N[C@@H](CCCCN)C(=O)N2CCC[C@H]2C(=O)N[C@@H](Cc2ccccc2)C(=O)N[C@H](C(=O)N[C@@H](Cc2ccccc2)C(=O)O)C(C)C)C(C)C)NC(=O)[C@H]2CCCN2C(=O)[C@@H]2CCCN2C(=O)[C@H]([C@@H](C)CC)NC(=O)[C@H](CO)NC1=O [VIR-348, LEAIPCSIPpCVGFGKPFVF] (H-LEAIPCSIP[dP]CVGFGKPFVF-OH; disulfide 6-11) | 0.2 | 3 | 9.3 | 326 | 541 | 3.3
5 | CC[C@H](C)[C@H](NC(=O)[C@H](C)NC(=O)[C@H](CCC(=O)O)NC(=O)[C@H](CC(C)C)NC)C(=O)N1CCC[C@H]1C(=O)N[C@@H](CCSC)C(=O)N[C@@H](CO)C(=O)N[C@H](C(=O)N1CCC[C@H]1C(=O)N1CCC[C@H]1C(=O)N[C@@H](CCC(=O)O)C(=O)N[C@@H](Cc1ccccc1)C(=O)N[C@@H](CC(C)C)C(=O)N[C@@H](Cc1ccccc1)C(=O)NCC(=O)N[C@@H](CCCCN)C(=O)N1CCC[C@H]1C(=O)N[C@@H](Cc1ccccc1)C(=O)N[C@H](C(=O)N[C@@H](Cc1ccccc1)C(=O)O)C(C)C)[C@@H](C)CC [VIR-512] (H-[NMeL]EAIPMSIPPEFLFGKPFVF-OH) | > 6 | 33.6 | 48.1 | 138 | 615 | 315
6 | CC[C@H](C)[C@H](NC(=O)[C@H](C)NC(=O)[C@H](CCC(=O)O)NC(=O)[C@@H](N)CC(C)C)C(=O)N1CCC[C@H]1C(=O)N[C@@H](CSSC[C@H](NC(=O)[C@@H]1CCCN1C(=O)[C@@H](NC(=O)[C@H](C)NC(=O)[C@H](CCC(=O)O)NC(=O)[C@@H](N)CC(C)C)[C@@H](C)CC)C(=O)N[C@@H](CO)C(=O)N[C@H](C(=O)N1CCC[C@H]1C(=O)N1CCC[C@H]1C(=O)N[C@@H](CCC(=O)O)C(=O)N[C@@H](Cc1ccccc1)C(=O)N[C@@H](CC(C)C)C(=O)N[C@@H](Cc1ccccc1)C(=O)NCC(=O)N[C@@H](CCCCN)C(=O)N1CCC[C@H]1C(=O)N[C@@H](Cc1ccccc1)C(=O)N[C@H](C(=O)N[C@@H](Cc1ccccc1)C(=O)O)C(C)C)[C@@H](C)CC)C(=O)N[C@@H](CO)C(=O)N[C@H](C(=O)N1CCC[C@H]1C(=O)N1CCC[C@H]1C(=O)N[C@@H](CCC(=O)O)C(=O)N[C@@H](Cc1ccccc1)C(=O)N[C@@H](CC(C)C)C(=O)N[C@@H](Cc1ccccc1)C(=O)NCC(=O)N[C@@H](CCCCN)C(=O)N1CCC[C@H]1C(=O)N[C@@H](Cc1ccccc1)C(=O)N[C@H](C(=O)N[C@@H](Cc1ccccc1)C(=O)O)C(C)C)[C@@H](C)CC [VIR-576] (I: H-LEAIPCSIPPEFLFGKPFVF-OH / II: H-LEAIPCSIPPEFLFGKPFVF-OH; disulfide I:6-II:6) | 2.6 | 3.8 | 12.6 | – | – | 5.8
7 | CC[C@H](C)[C@H](NC(=O)[C@@H]1CCCN1C(=O)[C@@H](NC(=O)[C@H](CCCCN)NC(=O)[C@H](CCC(=O)O)NC(=O)[C@@H](N)CC(C)C)[C@@H](C)CC)C(=O)NCC(=O)N[C@H](C(=O)N1CCC[C@H]1C(=O)N1CCC[C@@H]1C(=O)N[C@@H](CCC(=O)O)C(=O)N[C@H](C(=O)N1Cc2ccccc2C[C@H]1C(=O)N[C@@H](Cc1ccccc1)C(=O)N[C@@H](CC(N)=O)C(=O)N[C@@H](CCCCN)C(=O)N1CCC[C@H]1C(=O)N[C@@H](Cc1ccccc1)C(=O)N[C@H](C(=O)N[C@@H](Cc1ccccc1)C(=O)O)C(C)C)C(C)C)[C@@H](C)CC [VIR-484, LEKIPIGIPpEV(L-Tic)FNKPFVF] (H-LEKIPIGIP[dP]EV[Tic]FNKPFVF-OH) | 0.2 | 3.6 | 12.4 | 100 | 339 | 5
8 | CC[C@H](C)[C@H](NC(=O)[C@H](CCCCN)NC(=O)[C@H](CCC(=O)O)NC(=O)[C@@H](N)CC(C)C)C(=O)N1CCC[C@H]1C(=O)N[C@H]1CSSC[C@@H](C(=O)N[C@H](C(=O)N[C@@H](C)C(=O)N[C@@H](Cc2ccccc2)C(=O)N[C@@H](CC(N)=O)C(=O)N[C@@H](CCCCN)C(=O)N2CCC[C@H]2C(=O)N[C@@H](Cc2ccccc2)C(=O)N[C@H](C(=O)N[C@@H](Cc2ccccc2)C(=O)O)C(C)C)C(C)C)NC(=O)[C@H]2CCCN2C(=O)[C@@H]2CCCN2C(=O)[C@H]([C@@H](C)CC)NC(=O)[C@H](CO)NC1=O [VIR-358, LEKIPCSIPpCVAFNKPFVF] (H-LEKIPCSIP[dP]CVAFNKPFVF-OH; disulfide 6-11) | 0.4 | 4.7 | 16 | 706 | 944 | 5.9
9 | CC[C@H](C)[C@H](NC(=O)[C@H](C)NC(=O)[C@H](CCC(=O)O)NC(=O)[C@@H](N)CC(C)C)C(=O)N1CCC[C@H]1C(=O)N[C@@H](CCSC)C(=O)N[C@H]1CSSC[C@@H](C(=O)N[C@@H](CC(C)C)C(=O)N[C@@H](Cc2ccccc2)C(=O)NCC(=O)N[C@@H](CCCCN)C(=O)N2CCC[C@H]2C(=O)N[C@@H](Cc2ccccc2)C(=O)N[C@H](C(=O)N[C@@H](Cc2ccccc2)C(=O)O)C(C)C)NC(=O)[C@H](CCC(=O)O)NC(=O)[C@@H]2CCCN2C(=O)[C@@H]2CCCN2C(=O)[C@H]([C@@H](C)CC)NC1=O [VIR-274] (H-LEAIPMCIPPECLFGKPFVF-OH; disulfide 7-12) | 0.1 | 2.8 | 9.5 | 576 | 1420 | 2
10 | CC[C@H](C)[C@H](NC(=O)[C@H](C)NC(=O)[C@H](CCC(=O)O)NC(=O)[C@@H](N)CC(C)C)C(=O)N1CCC[C@H]1C(=O)N[C@@H](CCSC)C(=O)NCC(=O)N[C@H](C(=O)N1CCC[C@H]1C(=O)N1CCC[C@@H]1C(=O)N[C@@H](CCC(=O)O)C(=O)N[C@H](C(=O)N1Cc2ccccc2C[C@H]1C(=O)N[C@@H](Cc1ccccc1)C(=O)N[C@@H](CC(N)=O)C(=O)N[C@@H](CCCCN)C(=O)N1CCC[C@H]1C(=O)N[C@@H](Cc1ccccc1)C(=O)N[C@H](C(=O)N[C@@H](Cc1ccccc1)C(=O)O)C(C)C)C(C)C)[C@@H](C)CC [VIR-449, LEAIPMGIPpEV(L-Tic)FNKPFVF] (H-LEAIPMGIP[dP]EV[Tic]FNKPFVF-OH) | 0.2 | 4.2 | 42.2 | 274 | 240 | 4.8
11 | CC[C@H](C)[C@H](NC(=O)[C@H](C)NC(=O)[C@H](CCC(=O)O)NC(=O)[C@@H](N)CC(C)C)C(=O)N1CCC[C@H]1C(=O)N[C@@H](CCSC)C(=O)N[C@@H](CO)C(=O)N[C@H]1CSSC[C@@H](C(=O)N[C@@H](Cc2ccccc2)C(=O)NCC(=O)N[C@@H](CCCCN)C(=O)N2CCC[C@H]2C(=O)N[C@@H](Cc2ccccc2)C(=O)N[C@H](C(=O)N[C@@H](Cc2ccccc2)C(=O)O)C(C)C)NC(=O)[C@H](Cc2ccccc2)NC(=O)[C@H](CCC(=O)O)NC(=O)[C@@H]2CCCN2C(=O)[C@@H]2CCCN2C1=O [VIR-568] (H-LEAIPMSCPPEFCFGKPFVF-OH; disulfide 8-13) | 0.1 | 2.2 | 4 | 367 | 552 | 3.9
